# Results published in patent publication US20240138406A1, “ANTIMICROBIAL PEPTIDE SCYAMPCIN44-63 AND APPLICATION THEREOF” (Xiamen University, priority 2021, published 2024).
# No end group written: not given here.
# System: Enterobacter cloacae QZ18103
# Conditions: QZ18103, 24 h
substance,measurement,value
GKKKKRNMMKTKEPGIIFFF-NH2 [Scyampcin44-63],MBC,3 to 6 µM
